ChEMBL document CHEMBL1909046, “DrugMatrix in vitro pharmacology data”
pIC50: −log10 of the molar value. Where a SMILES comes first, the peptide text is derived from it. Bridges are numbered along the chain shown (N, C = ends). [ ]: non-standard residue; d: D form. The star is where a group is joined. Threoninol(2S,3R) = C[C@@H](O)[C@H](CO)N*

Assays:
[1] = target: T1, Polyunsaturated fatty acid lipoxygenase ALOX15 (Oryctolagus cuniculus, UniProt P12530); test: biochemical; format: tissue-based, Reticulocytes;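 also: inhibition of 15-lipoxygenase enzyme activity measured with linoleic acid as the substrate; in other assays of this panel Not Active means under 50% inhibition at 10 µM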
T1 sequence (P12530 whole entry): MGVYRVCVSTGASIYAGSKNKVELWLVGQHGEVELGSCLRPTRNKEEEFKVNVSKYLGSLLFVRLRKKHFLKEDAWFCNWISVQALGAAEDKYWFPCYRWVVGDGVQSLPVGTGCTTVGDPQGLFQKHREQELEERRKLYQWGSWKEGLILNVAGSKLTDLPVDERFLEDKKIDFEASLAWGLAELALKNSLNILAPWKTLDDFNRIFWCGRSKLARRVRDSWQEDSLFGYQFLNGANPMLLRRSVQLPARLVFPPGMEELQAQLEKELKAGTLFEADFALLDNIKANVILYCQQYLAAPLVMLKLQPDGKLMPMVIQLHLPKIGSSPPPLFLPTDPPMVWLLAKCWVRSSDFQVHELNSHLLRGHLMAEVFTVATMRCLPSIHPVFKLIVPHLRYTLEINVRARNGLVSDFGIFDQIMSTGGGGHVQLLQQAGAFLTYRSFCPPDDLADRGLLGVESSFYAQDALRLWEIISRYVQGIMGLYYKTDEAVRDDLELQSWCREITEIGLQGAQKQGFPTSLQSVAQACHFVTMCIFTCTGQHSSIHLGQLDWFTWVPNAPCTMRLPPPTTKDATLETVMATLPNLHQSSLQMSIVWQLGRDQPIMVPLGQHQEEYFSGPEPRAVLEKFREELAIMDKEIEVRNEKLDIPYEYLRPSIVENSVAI

[2] = target: T2, Nitric oxide synthase, inducible (Mus musculus, UniProt P29477); design: species or system Escherichia coli;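 also: inhibition of iNOS enzyme activity measured with L-arginine as substrate; in other assays of this panel Not Active means under 50% inhibition at 10 µM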
T2 sequence (P29477 whole entry): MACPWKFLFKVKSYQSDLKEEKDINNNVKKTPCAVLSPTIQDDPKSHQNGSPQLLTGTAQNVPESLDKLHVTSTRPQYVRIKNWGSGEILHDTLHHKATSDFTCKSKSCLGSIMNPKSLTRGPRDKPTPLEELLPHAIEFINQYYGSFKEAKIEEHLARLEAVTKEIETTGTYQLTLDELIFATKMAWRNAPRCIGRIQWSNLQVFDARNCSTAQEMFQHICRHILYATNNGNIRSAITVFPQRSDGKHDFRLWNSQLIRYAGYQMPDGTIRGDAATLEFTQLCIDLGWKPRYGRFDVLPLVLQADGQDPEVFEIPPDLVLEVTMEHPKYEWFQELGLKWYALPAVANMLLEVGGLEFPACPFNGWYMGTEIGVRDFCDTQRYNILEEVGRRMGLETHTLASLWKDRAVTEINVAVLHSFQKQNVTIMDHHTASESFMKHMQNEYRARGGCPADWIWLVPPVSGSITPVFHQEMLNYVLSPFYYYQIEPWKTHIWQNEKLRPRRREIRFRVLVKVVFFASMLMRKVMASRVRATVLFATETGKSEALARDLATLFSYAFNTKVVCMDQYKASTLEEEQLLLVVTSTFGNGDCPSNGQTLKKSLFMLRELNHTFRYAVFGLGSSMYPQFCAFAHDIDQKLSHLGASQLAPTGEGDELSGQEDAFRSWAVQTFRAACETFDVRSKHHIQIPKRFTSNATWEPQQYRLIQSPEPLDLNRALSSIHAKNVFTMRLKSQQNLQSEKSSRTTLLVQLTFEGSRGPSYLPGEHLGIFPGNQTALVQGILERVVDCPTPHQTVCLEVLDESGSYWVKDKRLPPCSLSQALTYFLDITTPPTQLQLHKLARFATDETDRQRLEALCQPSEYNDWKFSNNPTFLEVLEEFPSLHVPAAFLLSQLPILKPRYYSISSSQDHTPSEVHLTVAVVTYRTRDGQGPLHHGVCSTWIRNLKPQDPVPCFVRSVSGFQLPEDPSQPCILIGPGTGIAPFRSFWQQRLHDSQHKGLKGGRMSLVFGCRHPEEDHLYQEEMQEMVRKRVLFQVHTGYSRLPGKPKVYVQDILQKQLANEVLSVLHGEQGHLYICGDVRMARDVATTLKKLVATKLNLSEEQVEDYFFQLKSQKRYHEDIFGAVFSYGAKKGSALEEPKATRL

[3] = target: Mu-type opioid receptor (Homo sapiens, UniProt P35372); test: DRUGMATRIX: Opiate mu (OP3, MOP) radioligand binding (ligand: [3H] Diprenorphine); format: cell membranes, CHO-K1, Membrane; settings: cho-k1; Not Active = under 50% inhibition at 10 µM
Sequence of Mu-type opioid receptor (P35372 whole entry): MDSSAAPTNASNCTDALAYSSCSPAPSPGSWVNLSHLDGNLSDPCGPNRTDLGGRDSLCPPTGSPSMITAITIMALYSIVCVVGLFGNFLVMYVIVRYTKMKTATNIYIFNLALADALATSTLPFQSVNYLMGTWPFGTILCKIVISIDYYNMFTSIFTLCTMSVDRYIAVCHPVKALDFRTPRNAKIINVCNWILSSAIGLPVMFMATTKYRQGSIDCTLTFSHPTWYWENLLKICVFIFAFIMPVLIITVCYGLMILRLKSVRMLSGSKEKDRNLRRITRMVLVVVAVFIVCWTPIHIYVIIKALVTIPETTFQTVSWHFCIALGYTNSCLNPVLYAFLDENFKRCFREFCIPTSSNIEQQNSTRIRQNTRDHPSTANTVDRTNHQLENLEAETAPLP

[4] = target: Tyrosine-protein kinase Lck (Homo sapiens, UniProt P06239); test: DRUGMATRIX: Protein Tyrosine Kinase, LCK enzyme inhibition (substrate: Poly(Glu:Tyr)); format: cell-based, Insect cells; settings: insect cells; Not Active = under 50% inhibition at 10 µM
Sequence of Tyrosine-protein kinase Lck (P06239 whole entry): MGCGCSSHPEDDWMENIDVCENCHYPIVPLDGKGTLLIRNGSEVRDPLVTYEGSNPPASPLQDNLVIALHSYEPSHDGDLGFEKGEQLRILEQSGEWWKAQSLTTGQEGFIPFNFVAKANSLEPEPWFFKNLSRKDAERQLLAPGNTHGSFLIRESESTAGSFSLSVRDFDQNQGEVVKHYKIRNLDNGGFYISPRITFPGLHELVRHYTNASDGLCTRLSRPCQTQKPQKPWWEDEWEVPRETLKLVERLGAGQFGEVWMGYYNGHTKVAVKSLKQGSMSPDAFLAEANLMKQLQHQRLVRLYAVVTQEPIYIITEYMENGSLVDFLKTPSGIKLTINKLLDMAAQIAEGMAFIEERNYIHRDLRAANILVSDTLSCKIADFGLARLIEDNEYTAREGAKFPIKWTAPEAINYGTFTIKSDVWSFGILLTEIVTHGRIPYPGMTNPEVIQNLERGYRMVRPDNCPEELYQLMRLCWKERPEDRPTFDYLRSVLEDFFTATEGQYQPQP

[5] = target: T3, Cytochrome P450 2A6 (Homo sapiens, UniProt P11509); settings: bti-tn-5b1-4; also: in other assays of this panel Not Active means under 50% inhibition at 10 µM
T3 sequence (P11509 whole entry): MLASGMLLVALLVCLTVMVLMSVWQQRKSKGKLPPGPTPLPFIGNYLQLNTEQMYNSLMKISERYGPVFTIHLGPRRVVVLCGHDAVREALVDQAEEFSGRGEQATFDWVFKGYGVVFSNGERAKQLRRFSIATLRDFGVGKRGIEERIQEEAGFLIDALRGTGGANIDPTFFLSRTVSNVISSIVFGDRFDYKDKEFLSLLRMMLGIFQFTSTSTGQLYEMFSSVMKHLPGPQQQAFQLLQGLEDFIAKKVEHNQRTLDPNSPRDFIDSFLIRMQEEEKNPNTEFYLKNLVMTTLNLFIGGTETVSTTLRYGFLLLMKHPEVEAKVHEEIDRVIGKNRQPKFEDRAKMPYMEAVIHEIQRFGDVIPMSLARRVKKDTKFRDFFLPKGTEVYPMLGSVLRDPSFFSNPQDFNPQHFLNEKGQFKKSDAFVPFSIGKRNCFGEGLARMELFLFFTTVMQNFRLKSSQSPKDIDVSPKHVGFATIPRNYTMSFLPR

[6] = target: Cytochrome P450 2C9 (Homo sapiens, UniProt P11712); settings: bti-tn-5b1-4; also: in other assays of this panel Not Active means under 50% inhibition at 10 µM
Sequence of Cytochrome P450 2C9 (P11712 whole entry): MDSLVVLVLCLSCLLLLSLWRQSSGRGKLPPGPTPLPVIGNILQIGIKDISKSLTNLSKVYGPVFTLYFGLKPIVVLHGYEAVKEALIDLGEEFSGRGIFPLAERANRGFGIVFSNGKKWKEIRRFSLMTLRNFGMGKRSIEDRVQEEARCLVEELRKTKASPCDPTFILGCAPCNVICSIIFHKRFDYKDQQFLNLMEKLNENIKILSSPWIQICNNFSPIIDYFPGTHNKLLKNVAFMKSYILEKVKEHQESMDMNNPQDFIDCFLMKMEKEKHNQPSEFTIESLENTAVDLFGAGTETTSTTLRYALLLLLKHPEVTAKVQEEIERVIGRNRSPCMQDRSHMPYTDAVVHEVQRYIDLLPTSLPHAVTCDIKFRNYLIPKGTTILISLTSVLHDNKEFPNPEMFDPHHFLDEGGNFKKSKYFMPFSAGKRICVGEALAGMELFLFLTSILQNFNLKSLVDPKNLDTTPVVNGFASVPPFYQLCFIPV

SMILES | IC50 ([1]; reticulocytes) | IC50 [2] | IC50 [3] | IC50 [4] | IC50 [5] | Ki [5] | IC50 [6] | Ki [6] | pIC50 ([1]; read-out: IC50) | Ki ([1]; reticulocytes) | Ki [2] | Ki [3] | Ki [4]
CC(C)[C@H]1CC[C@H](C(=O)N[C@H](Cc2ccccc2)C(=O)O)CC1 [NATEGLINIDE] | Not Active | Not Active | Not Active | Not Active | Not Active | Not Active | Not Active | Not Active |  |  |  |  | 
Nc1c(CC(=O)O)cccc1C(=O)c1ccc(Br)cc1 [BROMFENAC] | Not Active | Not Active | Not Active | Not Active | Not Active | Not Active | Not Active | Not Active |  |  |  |  | 
CC(=O)Nc1cccc(O)c1 [METACETAMOL] | Not Active | Not Active | Not Active | Not Active | Not Active | Not Active | Not Active | Not Active |  |  |  |  | 
COc1ccc2c(c1)c(CC(=O)O)c(C)n2C(=O)c1ccc(Cl)cc1 [INDOMETHACIN] | Not Active | Not Active | Not Active | Not Active | Not Active | Not Active | Not Active | Not Active |  |  |  |  | 
C[C@H]1O[C@@H](O[C@H]2[C@@H](O)C[C@H](O[C@H]3[C@@H](O)C[C@H](O[C@H]4CC[C@@]5(C)[C@H](CC[C@@H]6[C@@H]5CC[C@]5(C)[C@@H](C7=CC(=O)OC7)CC[C@]65O)C4)O[C@@H]3C)O[C@@H]2C)C[C@H](O)[C@@H]1O [DIGITOXIN] | Not Active | Not Active | Not Active | Not Active | Not Active | Not Active | Not Active | Not Active |  |  |  |  | 
C[C@]12CC[C@@H]3c4ccc(O)cc4CC[C@H]3[C@@H]1CC[C@@H]2O [ESTRADIOL] |  | Not Active | Not Active | Not Active | Not Active | Not Active | Not Active | Not Active | 4.95 |  |  |  | 
COc1ccc2c(c1)[C@]13CCCC[C@@H]1[C@H](C2)N(C)CC3 [DEXTROMETHORPHAN] | Not Active | Not Active | Not Active | Not Active | Not Active | Not Active | Not Active | Not Active |  |  |  |  | 
C=C1CC[C@H](O)C/C1=C/C=C1\CCC[C@]2(C)[C@@H]([C@H](C)CCCC(C)C)CC[C@@H]12 [CHOLECALCIFEROL] | Not Active | Not Active | Not Active | Not Active | Not Active | Not Active | Not Active | Not Active |  |  |  |  | 
COc1cc2c(c3oc(=O)c4c(c13)CCC4=O)[C@@H]1C=CO[C@@H]1O2 [AFLATOXIN] | Not Active | Not Active | Not Active | Not Active | Not Active | Not Active | Not Active | Not Active |  | Not Active | Not Active | Not Active | Not Active
CC(C)Cc1ccc(C(C)C(=O)O)cc1 (stereo unspecified) [IBUPROFEN] | Not Active | Not Active | Not Active | Not Active | Not Active | Not Active | Not Active | Not Active |  |  |  |  | 
CC(C)(C(=O)c1cccnc1)c1cccnc1 [METYRAPONE] | Not Active | Not Active | Not Active | Not Active | Not Active | Not Active | Not Active | Not Active |  |  |  |  | 
Cc1ncc([N+](=O)[O-])n1CCO [METRONIDAZOLE] | Not Active | Not Active | Not Active | Not Active | Not Active | Not Active | Not Active | Not Active |  |  |  |  | 
C[C@@H](O)[C@H](CO)NC(=O)[C@@H]1CSSC[C@H](NC(=O)[C@H](N)Cc2ccccc2)C(=O)N[C@@H](Cc2ccccc2)C(=O)N[C@H](Cc2c[nH]c3ccccc23)C(=O)N[C@@H](CCCCN)C(=O)N[C@@H]([C@@H](C)O)C(=O)N1 (H-[dF]CF[dW]KTC-{Threoninol(2S,3R)}; disulfide 2-7) | Not Active | Not Active | Not Active | Not Active | Not Active | Not Active | Not Active | Not Active |  |  |  |  | 
COc1ccc2[nH]c([S+]([O-])Cc3ncc(C)c(OC)c3C)nc2c1 (stereo unspecified) [OMEPRAZOLE] | Not Active | Not Active | Not Active | Not Active | Not Active | Not Active | Not Active | Not Active |  |  |  |  | 
